# Measurements from US7705052B2, “Sulfonamide derivatives for the treatment of diabetes” (Merck Serono SA, priority 2003, dated 2010).
# System: db/db mice
# Assay: In vivo assay in db/db mice (model of postprandial glycemia)
# Conditions: db/db mice fasted 20 hours, 50 mg/kg p.o., 4 hrs after drug administration, compared to vehicle-treated animals (Group 1)
# Description: In Vivo Assay in db/db Mice
# The following assay aims at determining the anti-diabetic effect of the test compounds of formula (I) in a model of postprandial glycemia in db/db mice, in vivo.
# The assay was performed as follows:
# A total of 18 db/db mice (about 8-9 weeks; obtained from IFFACREDO, l'Arbreste, France) were fasted during 20 hours.
# 3 groups, each consisting of 6 animals were formed: • Group 1: The animals were administered (per os) a dose of 10 mg/kg of vehicle. • Group 2: The animals were administered (per os) a dose of 30 mg/kg of the test compound according to formula (I). • Group 3: The animals were administered (per os) a dose of 50 mg/kg of the test compound according to formula (I).
# After oral administration of the compounds of formula (I) solubilized or suspended in CarboxyMethylCellulose (0.5%), Tween 20 (0.25%) and water as vehicle, the animals had access to commercial food (D04, UAR, Villemoisson/Orge, France) ad libitum. The diabetic state of the mice was verified by determining the blood glucose level before drug administration. Blood glucose and serum insulin levels were then determined 4 hrs after drug administration. […]
# Changes in blood glucose and serum insulin of drug treated mice were expressed as a percentage of control (group 1: vehicle treated mice).
structure (smiles),measurement,setting,value
CCCCNC1CCN(S(=O)(=O)c2ccc(CNC(=O)c3ccc(Cl)cc3)s2)CC1 [4-chloro N-[(5-{[(butylamino)piperidin-1-yl]sulfonyl}thien-2-yl)methyl]benzamide],decrease in the (serum/blood) insulin level,ELISA,61%
same,decrease in blood glucose level induced by food intake,,42%
